Measured values reported in patent publication US20250154112A1, “A PREPARATION OF QUINAZOLINEDIONES AND USE THEREOF” (COUNCIL OF SCIENTIFIC AND INDUSTRIAL RESEARCH AN INDIAN …, priority 2021, published 2025).

How the values were obtained:
COP1 = target: T1, COP1 (Homo sapiens, UniProt Q8NHY2); test: Western blot of COP1 level in HepG2 cells after compound treatment; type: cell-based; conditions: 5 μM, 24 hours
T1 construct: endogenous in cells; host or cells: HepG2
Experimental: (§1) HepG2 cells were treated with the compounds 5, 8, 11, 59, 62, 65, 91, 94 at 5 μM for 24 hours. After removing media from the cells, the wells were washed with 1×PBS twice to remove any remnant media. Cells were then lysed in lysis buffer containing 50 mM Tris-HCl (pH 7.4), 100 mM NaCl, 1 mM EDTA, 1 mM EGTA, 1% Triton X-100 and protease inhibitor cocktail 1 (Millipore, Billierica, MA, USA). Following centrifugation at 20,000 g for 20 minutes, the protein solution was extracted from the cells. Protein was estimated using Bradford assay. Bradford's reagent (BioRad) was diluted in 1:4 ratio in double distilled water. 2 μl of protein sample was added to 100 μl of the reagent and absorbance was measured at 595 nm. 30 μg of protein was diluted in lysis buffer. 1X loading buffer diluted from 5X stock containing 250 mM Tris-HCl (pH 6.8), 10% SDS, 50% glycerol, 0.1% bromophenol Blue and 10% β-mercaptoethanol was added. The protein samples were then heated at 95° C. for 10 minutes, cooled and centrifuged at 12,000 g for 2 minutes prior to loading.
(§2) For western blotting, the proteins were resolved in 10% SDS PAGE (discontinuous buffer system). 1X running buffer containing SDS, Tris Base and Glycine was used to run the gel at 80V for approximately 2 hours. Transfer was done using PVDF membrane (Millipore) having pore size of 0.45 μm. 1X transfer buffer containing Tris-Base, Glycine and 20% methanol was used for wet transfer. Transfer was done at 90V for 3 hours. Following transfer, the PVDF membrane containing the proteins were washed in 1×PBST comprising of 1×PBS and 1% Tween 20 (Sigma Aldrich). The membrane was then incubated for 1 hour at room temperature in 5% skim milk powder to block the non-specific sites. Following multiple washes with 1×PBST to wash away any remaining blocking buffer, the required primary antibody (COP1 [BethylLaboraties], ATGL [Cell Signalling Technology] or Actin[Cell Signalling Technology]) prepared with 1×PBST, 1% Bovine Serum Albumin and 0.04% Sodium Azide was added to the membrane and incubated overnight at 4° C. The next day, the membrane was again washed multiple times with 1×PBST to remove any unbound primary antibody. The membrane was then incubated with goat anti-rabbit secondary antibody (Genei) for 1 hour at room temperature and washed again for multiple times with 1×PBST. The membrane was then developed using Clarity™ ECL Western Blotting Substrate (BioRad) and viewed in ChemiDoc (BioRad).

[1] = Metabolic stability using human liver microsomes (HLM); type: in vitro ADME
Experimental: 1 mM stock solution of test compound was prepared in DMSO and diluted with Acetonitrile:Water (1:1) to get a 100 μM working concentration. 100 mL of Milli Q water was added to K2HPO4 (1.398 g) and KH2PO4 (0.27 g) to get final pH 7.4 solution of potassium phosphate buffer. […] The above mixture was pre incubated for 15 minutes at 37° C. After pre incubation, 32.5 μL of the mixture was added to 17.5 μL of buffer, this was incubated for 60 minutes at 37° C. [60 min Without Cofactor (NADPH)]. 16.25 μL of the pre incubated mixture and 8.75 μL of cofactor was added to 150 μL of acetonitrile containing internal standard [0 min Sample]. 62 μL of cofactor was added to remaining pre incubation mixture [Incubation mixture]. 25 μL of incubation mixture at 0, 5, 15, 30, 60 min and 60 min without cofactor were precipitated with 150 μL of acetonitrile containing internal standard, vortexed and centrifuged at 4000 rpm at 4° C. for 20 minutes. 120 μL of supernatant was diluted with 120 μL of water and analyzed by LC-MS/MS [sample preparation].

ATGL [2] = test: Western blot of ATGL level in HepG2 cells after compound treatment; type: cell-based; conditions: 24 hours; for ATGL level (Western Blot): 50 nM to 5 μM dose dependent, with respect to control; for induction of ATGL (Western Blot): 5 μM
Experimental: as §1, with “62,” for “62, 65,”, “94 (50 nM, 100 nM, 200 nM, 500 nM, 1 μM and” for “94 at”, “μM for dose dependent assays)” for “μM”, “cocktail” for “cocktail 1”
as §2, §1

[3] = tested on: ubiquitination of ATGL by COP1; test: Immunoprecipitation assay of ATGL ubiquitination status in HepG2 cells; type: cell-based; conditions: HepG2 cells overexpressing myc-ATGL, HA-Ubiquitin, 5 μM, MG-132, compared with control
Experimental: To this end, an immunoprecipitation assay was performed wherein HepG2 cells overexpressing myc-ATGL were transfected with HA-Ubiquitin and treated with 5 μM of the compounds 5, 62, and 94.MG-132, a proteasomal inhibitor, was added4 hours before harvesting the cells. Immune complexes were pulled down with anti-myc antibody and immunoblot was done using anti-HA antibody. The resultant smears on the blot reflect the ubiquitination status of ATGL.

ATGL [4] = test: Fold change in ATGL by densitometric analysis; type: cell-based; conditions: fold change of ATGL with respect to control, normalized with actin
Experimental: Densitimetric analysis was performed by image J to calculate the fold change of ATGL with respect to control. The values were normalized with actin.

[5] = Lipophilicity assay (octanol/buffer Log D); type: physicochemical; conditions: pH 7.4, n-octanol/sodium phosphate buffer
Experimental: 1.56 g NaH2PO4·2H2O was dissolved in 0.5 L water in a 1 L beaker. After adjusting pH to 7.4 using NaOH solution, the volume was made up to 1 L. Equal volumes of sodium phosphate buffer (10 mM, pH 7.4) and n-octanol were added to a separation funnel and mixed thoroughly by shaking and inverting the funnel several times. The two layers were allowed to separate for overnight and then dispensed in two separate glass bottles. 10 mM stock solution was prepared in 100% DMSO and stored at 4° C. 495 μL of organic phase (1-octanol) was added to each well of a 2 mL deep well plate, followed by 495 μL of buffer and 10 μL of test substance was added. The plate was incubated for 3 hrs at room temperature on a plate shaker at 500 rpm. After incubation, the samples were allowed to equilibrate for 20 min and then centrifuged at 4000 rpm for 30 min for complete phase separation and analysed by LC-UV. Log D=Log (area of octanol/area of buffer)

T1 sequence (Q8NHY2 whole entry): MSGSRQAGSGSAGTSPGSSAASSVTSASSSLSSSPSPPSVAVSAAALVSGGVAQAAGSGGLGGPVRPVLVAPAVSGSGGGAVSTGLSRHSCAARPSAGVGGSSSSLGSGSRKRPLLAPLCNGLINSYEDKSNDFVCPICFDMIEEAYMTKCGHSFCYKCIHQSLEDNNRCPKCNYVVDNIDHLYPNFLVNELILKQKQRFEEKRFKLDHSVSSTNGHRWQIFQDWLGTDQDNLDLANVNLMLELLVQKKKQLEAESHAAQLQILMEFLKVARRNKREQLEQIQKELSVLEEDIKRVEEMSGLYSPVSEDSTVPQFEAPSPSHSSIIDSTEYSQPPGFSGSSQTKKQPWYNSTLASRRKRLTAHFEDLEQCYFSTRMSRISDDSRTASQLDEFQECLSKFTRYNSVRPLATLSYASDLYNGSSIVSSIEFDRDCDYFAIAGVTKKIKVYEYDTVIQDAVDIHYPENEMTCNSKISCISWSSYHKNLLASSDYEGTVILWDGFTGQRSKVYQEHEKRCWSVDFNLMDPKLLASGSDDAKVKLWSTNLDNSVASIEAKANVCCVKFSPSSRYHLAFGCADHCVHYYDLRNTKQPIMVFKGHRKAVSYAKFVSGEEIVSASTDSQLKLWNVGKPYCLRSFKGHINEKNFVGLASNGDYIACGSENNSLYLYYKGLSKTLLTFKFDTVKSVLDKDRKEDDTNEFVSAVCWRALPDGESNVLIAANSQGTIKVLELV

SMILES	stabilization of COP1 (Western Blot) (COP1)	% QH (Well stirred model) [1] [%]	ATGL level (Western Blot) (ATGL [2])	induction of ATGL (Western Blot) (ATGL [2])	ubiquitination status of ATGL (poly-Ubiquitin smear) [3]	Fold change (ATGL [4])	LogD @ pH 7.4 [5]	logD [5]
COCCn1c(=O)[nH]c2ccc(NC(=O)Nc3cccc(C(C)=O)c3)cc2c1=O [Compound 5, 1-(3-acetylphenyl)-3-(3-(2-methoxyethyl)-2,4-dioxo-1,2,3,4-tetrahydroquinazolin-6-yl)urea]	stabilize the COP1	7.60	increased ATGL level	ability to induce ATGL	stark reduction in the ubiquitination smear	1.44	2.17	
COCCn1c(=O)c2cc(NC(=O)Nc3cccc(C(C)=O)c3)ccc2n(CCN2CCCCC2)c1=O [Compound 62, 1-(3-acetylphenyl)-3-(3-(2-methoxyethyl)-2,4-dioxo-1-(2-(piperidin-1-yl)ethyl)-1,2,3,4-tetrahydroquinazolin-6-yl)urea]	stabilize the COP1	56.74	increased ATGL level	ability to induce ATGL	stark reduction in the ubiquitination smear	1.55	2.78	
COCCn1c(=O)c2cc(NC(=O)Nc3cccc(C(C)=O)c3)ccc2n(CCCN2CCOCC2)c1=O [Compound 94, 1-(3-acetylphenyl)-3-(3-(2-methoxyethyl)-1-(3-morpholinopropyl)-2,4-dioxo-1,2,3,4-tetrahydroquinazolin-6-yl)urea]	stabilize the COP1	59.60	increased ATGL level	ability to induce ATGL	no such effect	0.84		0.97
